The values that follow come from patent publication EP4813979A1, “COMPOUND FOR EGFR PROTEIN DEGRADATION AND USE THEREOF” (TYK Medicines, Inc., priority 2023, dated 2025).

The DC50 is the midpoint of the concentration-degradation curve. In general, Dmax refers to the greatest extent of degradation seen. A word on the AUC(0-inf): it is total exposure, with the tail of the curve extrapolated. A word on the AUC(0-t): it is the area under the concentration-time curve up to a stated or last time point. A lower AUC(0-t) goes with low exposure. Broadly, the Cmax is the peak of the concentration-time curve. As a reminder, the MRT last is a mean duration of stay, worked out from the concentration-time curve. A word on the Tmax: it is the time at which the peak concentration occurs. In general, IC50 refers to the concentration that gives 50% inhibition. Lower therefore signals inhibition by little substance.

Where two headings read alike, the source gives them in different places. A value given as a limit tells only on which side of the number the result lay.

Series [1] deals with EGFR in Baf3-L858R-T790M-C797S (Homo sapiens, UniProt P00533, C797S/L858R/T790M). Kind of series: EGFR PROTAC HTRF experiment (total EGFR degradation). The series is classed as cell-based. As for the experimental part: (§1) [table] Among them, B[…] -C797S (abbreviated as Baf3-DTC) is a stable Ba/F3 clone expressing exogenous EGFR gene bearing T790M, C797S and […] triple amino acid mutations, purchased from KYinno; Baf3-L858R-T790M - C797S (abbreviated as Baf3-LTC) is a stable Ba/F3 clone expressing exogenous EGFR gene bearing […], T790M, C797S triple mutations, purchased from KYinno. [table] [table] Dilutded Eu and d2 antibodies 2μl per well with detection buffer 20-fold. Then mixed the two antibody vials thoroughly. [table] Opened EnVision , locate the HTRF program, configured the board, and then read […]. The fitted curve, DC50 and Dmax of this compound could be generated using GraphPad Prism .

In series [2] the target is EGFR in Baf3-19del-T790M-C797S (Homo sapiens, UniProt P00533, C797S/DEL746-750/T790M). The series is described as above. It is filed as cell-based. As for the experimental part: as §1
Series [3] is described as follows: Pharmacokinetic tests in male SD rats. It is filed as in vivo. Conditions: oral gavage (po), 10 mg/kg, plasma; for AUC(0-inf) / AUC(0-t) / Cmax / MRT last / Tmax: rat. Summed up: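 Fasted male SD rats (n=3) dosed 10 mg/kg by oral gavage as 1 mg/mL solution in 10% DMSO/90% 0.5% MC. Tail-vein EDTA plasma sampled 0.5–24 h, parent drug quantified by LC-MS/MS; AUC, T1/2, Cmax, Tmax by non-compartmental analysis.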

A further series has as its system PC-9. Kind of series: Cell anti-proliferation experiment (CTG). It is filed as cell-based. Conditions: Homo sapiens, PC-9 (EGFR exon 19 deletion), class symbol. A digest of the protocol:
(§2)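 PC-9 (EGFR exon 19 del), H1975 (T790M/L858R), A431 (wild-type EGFR) and a Ba/F3 clone stably expressing mutant EGFR were seeded at 1500-2500 cells/well, left 24 h, then treated in triplicate with 1:4 dilutions up to 10,000 nM for 72 h. CTG luminescence was normalised to 0.1% DMSO and blank medium; IC50 from curve fit.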

For the next series, the system named is A549. In words: Cell anti-proliferation experiment (CTG). It is filed as cell-based. Conditions: Homo sapiens, A549 (wild-type EGFR), class symbol. A digest of the protocol: (§3)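 Cells were seeded at 1500–2500/well and dosed after ~24 h with compound in a 1:4 dilution series up to 10,000 nM, in triplicate. Viability was read by CTG luminescence after 72 h, normalized to the 0.1% DMSO control and medium blank, and IC50 was obtained by curve fitting.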

A further series deals with A431. Kind of series: Cell anti-proliferation experiment (CTG). The series is classed as cell-based. Conditions: Homo sapiens, A431 (wild-type EGFR), class symbol. A digest of the protocol: as §2
The next series deals with HCC827. Kind of series: Cell anti-proliferation experiment (CTG). It is filed as cell-based. Conditions: Homo sapiens, HCC827 (exon 19 deletion), class symbol. A digest of the protocol:
as §3

In series [4] the test system is Baf3-L858R-T790M - C797S (Baf3-LTC). Kind of series: Cell anti-proliferation experiment (CTG). The series is classed as cell-based. Particulars: class symbol. A digest of the protocol:
as §2

Series [5] deals with Baf3-19del- T790M -C797S (Baf3-DTC). Kind of series: Cell anti-proliferation experiment (CTG). Conditions: class symbol. It is filed as cell-based. A digest of the protocol: as §2
The subject of the next series is H1975. Kind of series: Cell anti-proliferation experiment (CTG). It is filed as cell-based. Conditions: Homo sapiens, H1975 (EGFR T790M/L858R), class symbol. Summed up:
as §2

The mark [6] stands for this setting: Baf3-LTC, incubated 16 hours, HTRF total EGFR; read-out: Baf3-LTC DC50.
The mark [7] stands for this setting: Baf3-LTC, incubated 16 hours, HTRF total EGFR; read-out: Baf3-LTC Dmax.
Where [8] appears, read: Baf3-DTC, incubated 16 hours, HTRF total EGFR; read-out: Baf3-DTC DC50.
Setting [9] is: Baf3-DTC, incubated 16 hours, HTRF total EGFR; read-out: Baf3-DTC Dmax.
Where [10] appears, read: read-out: Baf3-LTC DC50; Baf3-LTC, incubated 16 hours, HTRF total EGFR.
Where [11] appears, read: read-out: Baf3-DTC DC50; Baf3-DTC, incubated 16 hours, HTRF total EGFR.

EGFR in Baf3-L858R-T790M-C797S, sequence (P00533 25-1210 T790M/C797S/L858R): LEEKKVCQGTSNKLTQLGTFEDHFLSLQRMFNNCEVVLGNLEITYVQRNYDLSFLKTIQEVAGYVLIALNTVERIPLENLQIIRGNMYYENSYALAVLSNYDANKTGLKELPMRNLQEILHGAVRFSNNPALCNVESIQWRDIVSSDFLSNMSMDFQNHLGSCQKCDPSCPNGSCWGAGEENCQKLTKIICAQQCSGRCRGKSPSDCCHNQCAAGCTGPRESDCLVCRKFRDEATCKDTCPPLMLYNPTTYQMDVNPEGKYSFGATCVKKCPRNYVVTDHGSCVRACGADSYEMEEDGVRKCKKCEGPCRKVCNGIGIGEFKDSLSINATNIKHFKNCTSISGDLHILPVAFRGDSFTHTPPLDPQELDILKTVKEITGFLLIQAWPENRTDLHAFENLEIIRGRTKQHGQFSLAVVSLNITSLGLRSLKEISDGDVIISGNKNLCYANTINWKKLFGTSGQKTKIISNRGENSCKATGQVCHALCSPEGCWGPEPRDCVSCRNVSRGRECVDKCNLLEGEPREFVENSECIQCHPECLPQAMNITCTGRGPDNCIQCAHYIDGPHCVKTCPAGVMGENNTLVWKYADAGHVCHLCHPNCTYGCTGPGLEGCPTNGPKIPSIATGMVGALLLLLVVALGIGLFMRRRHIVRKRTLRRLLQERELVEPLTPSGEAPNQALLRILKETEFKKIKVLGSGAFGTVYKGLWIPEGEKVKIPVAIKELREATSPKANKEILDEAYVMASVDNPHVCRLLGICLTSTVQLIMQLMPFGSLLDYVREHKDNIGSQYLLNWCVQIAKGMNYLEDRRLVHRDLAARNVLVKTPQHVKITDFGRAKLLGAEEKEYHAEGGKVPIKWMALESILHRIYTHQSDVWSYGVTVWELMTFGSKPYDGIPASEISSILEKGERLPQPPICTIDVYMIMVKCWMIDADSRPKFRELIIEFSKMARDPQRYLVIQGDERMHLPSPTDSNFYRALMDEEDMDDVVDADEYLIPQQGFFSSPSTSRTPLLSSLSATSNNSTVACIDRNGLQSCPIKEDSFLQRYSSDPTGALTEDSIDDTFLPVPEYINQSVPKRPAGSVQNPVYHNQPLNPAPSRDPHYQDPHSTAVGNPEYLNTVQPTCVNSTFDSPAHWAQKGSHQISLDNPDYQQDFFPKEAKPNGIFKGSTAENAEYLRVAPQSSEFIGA
EGFR in Baf3-19del-T790M-C797S, sequence (P00533 with tags, fused parts or gaps DEL746-750/T790M/C797S): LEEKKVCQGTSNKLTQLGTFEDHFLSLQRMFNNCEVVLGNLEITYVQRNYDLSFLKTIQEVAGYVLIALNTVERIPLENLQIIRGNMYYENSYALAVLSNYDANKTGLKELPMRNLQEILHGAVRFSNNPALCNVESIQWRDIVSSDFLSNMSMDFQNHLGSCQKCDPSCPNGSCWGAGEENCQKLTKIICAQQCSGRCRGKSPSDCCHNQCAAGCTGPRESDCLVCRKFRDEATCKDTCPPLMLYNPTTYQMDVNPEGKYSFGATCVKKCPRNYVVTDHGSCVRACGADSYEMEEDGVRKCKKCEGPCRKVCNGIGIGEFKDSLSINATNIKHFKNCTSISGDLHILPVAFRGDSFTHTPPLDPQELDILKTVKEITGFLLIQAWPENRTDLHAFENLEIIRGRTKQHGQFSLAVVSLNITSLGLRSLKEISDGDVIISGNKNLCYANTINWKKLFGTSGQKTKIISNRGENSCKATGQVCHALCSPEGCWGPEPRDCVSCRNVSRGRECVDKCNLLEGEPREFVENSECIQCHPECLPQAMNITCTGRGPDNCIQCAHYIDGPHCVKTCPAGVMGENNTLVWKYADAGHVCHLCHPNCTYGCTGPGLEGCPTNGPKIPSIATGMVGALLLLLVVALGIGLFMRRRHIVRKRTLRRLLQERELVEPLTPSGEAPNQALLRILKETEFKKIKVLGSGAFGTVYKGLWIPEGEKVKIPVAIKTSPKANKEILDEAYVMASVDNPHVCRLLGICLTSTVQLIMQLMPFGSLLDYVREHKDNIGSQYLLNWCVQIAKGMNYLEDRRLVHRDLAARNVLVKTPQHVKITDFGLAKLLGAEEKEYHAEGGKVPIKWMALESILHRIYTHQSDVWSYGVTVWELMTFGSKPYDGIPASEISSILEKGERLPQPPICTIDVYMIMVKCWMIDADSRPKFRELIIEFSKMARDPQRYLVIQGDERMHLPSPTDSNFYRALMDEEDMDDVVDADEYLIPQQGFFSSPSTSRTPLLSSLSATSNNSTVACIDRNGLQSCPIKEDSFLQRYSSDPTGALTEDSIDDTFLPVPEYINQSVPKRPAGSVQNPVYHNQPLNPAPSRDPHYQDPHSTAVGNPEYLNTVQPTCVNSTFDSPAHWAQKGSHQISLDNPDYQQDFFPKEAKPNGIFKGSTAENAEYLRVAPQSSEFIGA

Turning to `CCc1cc(Nc2ncc(Br)c(Nc3ccccc3P3(=O)CCCC3)n2)c(OC)cc1N1CC2(CCN(C(=O)CN3CCC(c4cc5c(cc4F)c(N4CCC(=O)NC4=O)nn5C)C(F)(F)C3)CC2(F)F)C1` (centres unmarked) [TB-010], the DC50 in [1] (setting [6]) and in series [2] (setting [8]) was less than 10 nM in each case. The Dmax in series [1] (setting [7]) and in series [2] (setting [9]) was 70 to 100% in each case. The molecule also gave an HL in series [3] of 3.59 h. For the same molecule, the AUC(0-inf) in series [3] turned out to be 5800 ng·h/mL. In addition, the exposure AUC(0-t) in [3] worked out at 5730 ng·h/mL. This molecule also had a maximum concentration (Cmax) in series [3] of 482 ng/mL. The molecule further had an MRT last in series [3] of 6.6 h. Moreover, the Tmax in series [3] was 4 h. The half-inhibitory concentration (IC50) with PC-9 (PC-9, 72 h) is 100 to 1000 nM; in the series with A549 (A549, 72 h), more than 1000 nM; in the series with A431 (A-431, 72 h), more than 1000 nM; in the series with HCC827 (HCC827, 72 h), 10 to 100 nM; in series [4] (72 h), 10 to 100 nM; in [5] (72 h), 10 to 100 nM. The same molecule gave a 50% inhibitory concentration (IC50) in the series on H1975 (NCI-H1975, 72 h) of less than 10 nM.

In the case of `CCc1cc(Nc2ncc(Br)c(Nc3ccccc3P(C)(C)=O)n2)c(OC)cc1N1CCN(C(=O)CN2CCC(c3cc4c(cc3F)c(N3CCC(=O)NC3=O)nn4C)C(F)(F)C2)CC1` (centres unmarked) [TC-158], the DC50 in series [1] (setting [10]) and in series [2] (setting [11]) was less than 10 nM each time. Also, the Dmax in series [1] (read-out: Baf3-LTC Dmax) and in [2] (read-out: Baf3-DTC Dmax) was 70 to 100% each time. This molecule registered an HL in [3] of 2.81 h. In series [3], this molecule returned a total exposure AUC(0-inf) of 5610 ng·h/mL. The AUC(0-t) in series [3] turned out to be 5590 ng·h/mL. The molecule further returned a maximum concentration (Cmax) in series [3] of 533 ng/mL. This molecule also showed a mean residence time (MRT last) in series [3] of 6.02 h. Moreover, the Tmax in series [3] was determined as 2.67 h. For the same molecule, the IC50 with PC-9 (72 hours) was 100 to 1000 nM; in the series on A549 (72 hours), more than 1000 nM; in the series with A431 (A-431, 72 hours) it was more than 1000 nM; in the series on HCC827 (72 hours), 100 to 1000 nM; in series [4] (72 hours), less than 10 nM; in [5] (72 hours), less than 10 nM. Besides, in the series with H1975 (NCI-H1975, 72 hours), the IC50 was 10 to 100 nM.

Take `CCc1cc(Nc2ncc(Br)c(Nc3ccccc3P(C)(C)=O)n2)c(OC)cc1N1CC2(CCN(C(=O)CN3CCC(c4cc5c(cc4F)c(N4CCC(=O)NC4=O)nn5C)C(F)(F)C3)CC2)C1` (centres unmarked) [TC-164]: the 50% degradation concentration (DC50) in [1] (setting [10]) and in series [2] (setting [11]) was less than 10 nM in each case. Also, the Dmax in [1] (read-out: Baf3-LTC Dmax) and in series [2] (read-out: Baf3-DTC Dmax) was 70 to 100% each time. The IC50 with PC-9 (72 hours) was 100 to 1000 nM; in the series on A549 (72 hours) it was more than 1000 nM; in the series on A431 (A-431, 72 hours), more than 1000 nM; in the series with HCC827 (72 hours), 10 to 100 nM; in [4] (72 hours) it was less than 10 nM; in [5] (72 hours), less than 10 nM. Further, the 50% inhibitory concentration (IC50) in the series on H1975 (NCI-H1975, 72 hours) was less than 10 nM.

Consider `CCc1cc(Nc2ncc(Cl)c(Nc3ccccc3C(=O)NC)n2)c(OC)cc1N1CCN(CCN2CCC(c3cc4c(cc3F)c(N3CCC(=O)NC3=O)nn4C)CC2)CC1` [TD-001], for which the 50% degradation concentration (DC50) in series [1] (setting [6]) lay in the range of 10 to 100 nM; in [2] (setting [8]), 100 to 1000 nM. Moreover, the Dmax in [1] (setting [7]) and in [2] (setting [9]) was 50 to 70% throughout. Further, the half-inhibitory concentration (IC50) is 100 to 1000 nM in the series with PC-9 (PC-9, 72 h); 10 to 100 nM in the series on A549 (A549, 72 h); more than 1000 nM in the series with A431 (A-431, 72 h); less than 10 nM in the series with HCC827 (HCC827, 72 h); 10 to 100 nM in series [4] (72 h); 10 to 100 nM in series [5] (72 h). Further, in the series with H1975 (NCI-H1975, 72 h), the IC50 is less than 10 nM.
